Series [1] deals with HBV (hepatitis B virus) in HepG2.2.15 cells. Briefly: Cell-based anti-viral activity assay (HBV DNA in supernatant by quantitative PCR). To be noted: 120 h, anti-HBV activity, HepG2.2.15 cells, 5 days, read-out: EC50 (HepG2.2.15). The procedure:
Cell-Based Anti-Viral Activity Assay
The Invention determined the anti-HBV (hepatitis B virus) activity of compounds in HepG2.2.15 cells (Table 1).
HepG2.2.15 is a cell line stably transfected with the HBV genome. HepG2.2.15 cells were cultured in DMEM (1X) with 10% fetal bovine serum (Corning), 100 U penicillin (Gibico), 100 μg/mL streptomycin (Gibico), 250 μg/mL geneticin (Gibco) and GlutaMAXTM-I medium (Invitrogen).
HepG2.2.15 cells were seeded into 96-well plates (4×10^4 cells in 100 μL of medium per well) and incubated overnight at 37° C. The test compounds were weighed and prepared as 10 mM stock solution with DMSO. The stock solutions of the compounds were diluted by a gradient of 3.16 times with DMSO, and then diluted by a gradient of 3.16 times with medium for 50 times. Finally, the diluted compound solutions were added to the cell plate with a total volume of 200 μL and the final DMSO concentration was 1%. The 96-well culture plates loaded with drugs were transferred to an incubator at 37° C. for 5 days. […] nucleic acid releasing agent was added to 96-well PCR reaction plate, and 2 μL of cell supernatant or HBV quantitative standards were added to the corresponding Wells. Centrifuged the plates to fully mix, and incubated at room temperature for 10 min to fully release nucleic acid. Quantified HBV DNA content by fluorescent quantitative PCR (CFX Connect Real-Time System) using Sanxiang Bio hepatitis B virus fluorescent quantitative diagnostic kit.
The standard curve was established by taking the logarithm of the copy number (IU/ml) of the HBV standard sample (log 10) as the abscordinate and the corresponding CT value as the ordinate. The copy number of the sample was calculated according to the corresponding CT of the positive sample and the standard curve, and the percentage of inhibition rate was calculated as follows: • % Inhibition=100-100*(sample HBV copy number−high concentration reference compound column HBV copy number)/DMSO column HBV copy number−high concentration reference compound column HBV copy number).

Series [2] is described as follows: Cytotoxicity assay (CellTiter Glo). In kind it is cell-based. To be noted: human; HepG2.2.15 cells, five days post treatment. The procedure:
The Invention Determined Cytotoxicity of the Compounds Against HepG2.2.15 Cells (Table 2)
HepG2.2.15 cells were seeded into 96-well plates (8000 cells per well) and cell viability was measured by the addition of 60 μL of CellTiter Glo reagent (Promega) five days post treatment with the compounds. Cell plates with CellTiter Glo added were shaken on a plate shaker for 20 min and then the chemiluminescence signal was stabilized at room temperature for 10 min. Chemiluminescence values were read using a microplate reader (Bio-TeK SYNERGY NEO2).
The concentration corresponding to 50% cytotoxicity (CC50) was fitted by graphpad prism software. The cytotoxicity was calculated by the formula: % Cytotoxicity=100−(chemiluminescence value of sample Well −average chemiluminescence value of blank medium column)/(average chemiluminescence value of DMSO column −average chemiluminescence value of blank medium column)*100

The EC50 is the concentration giving half of the maximal effect. What is called CC50 is the concentration giving 50% cytotoxicity. Turning to `CCOC(=O)C1=C(CN2CCN3C(=O)N(C45CC(C(=O)O)(C4)C5)C[C@@H]3C2)NC(c2nccs2)=N[C@H]1c1cccc(F)c1C` [Compound 1, 3-((S)-7-(((S)-5-(Ethoxycarbonyl)-6-(3-Fluoro-2-Methylphenyl)-2-(Thiazol-2-Yl)-3,6-Dihydropyrimidin-4-Yl)Methyl)-3-Oxohexahydroimidazo[1,5-a]Pyrazin-2(3H)-Yl)Bicyclo[1.1.1]Pentane-1-Carboxylic Acid], the EC50 in series [1] came out at 33 nM. Also, the CC50 at 5 days in series [2] is above 50000 nM.
Turning to `CCOC(=O)C1=C(CN2CCN3C(=O)N(C45CC(CO)(C4)C5)C[C@@H]3C2)NC(c2nccs2)=N[C@H]1c1cccc(F)c1C` [Compound 2, Ethyl (S)-4-(3-Fluoro-2-Methylphenyl)-6-(((S)-2-(3-(Hydroxymethyl)Bicyclo[1.1.1]Pentan-1-Yl)-3-Oxohexahydroimidazo[1,5-a]Pyrazin-7(1H)-Yl)Methyl)-2-(Thiazol-2-Yl)-1,4-Dihydropyrimidine-5-Carboxylate], in series [1], the EC50 was 3 nM. Further, in series [2], the 50% cytotoxic concentration (CC50) at 5 days is above 50000 nM.
Regarding `CCOC(=O)C1=C(CN2CCN3C(=O)N(CC45CC(C(=O)O)(C4)C5)C[C@@H]3C2)NC(c2nccs2)=N[C@H]1c1cccc(F)c1C` [Compound 5, 3-(((S)-7-(((S)-5-(Ethoxycarbonyl)-6-(3-Fluoro-2-Methylphenyl)-2-(Thiazol-2-Yl)-3,6-Dihydropyrimidin-4-Yl)Methyl)-3-Oxohexahydroimidazo[1,5-a]Pyrazin-2(3H)-Yl)Methyl)Bicyclo[1.1.1]Pentane-1-Carboxylic Acid], in series [1], the EC50 stood at 73 nM. Further, the CC50 at 5 days in series [2] was above 50000 nM.
For the molecule `CCOC(=O)C1=C(CN2CCN3C(=O)N(C45CC(C#N)(C4)C5)C[C@@H]3C2)NC(c2nccs2)=N[C@H]1c1cccc(F)c1C` [Compound 17, Ethyl (S)-6-(((S)-2-(3-Cyanobicyclo[1.1.1]Pentan-1-Yl)-3-Oxohexahydroimidazo[1,5-a]Pyrazin-7(1H)-Yl) Methyl)-4-(3-Fluoro-2-Methylphenyl)-2-(Thiazol-2-Yl)-1,4-Dihydropyrimidine-5-Carboxylate], the EC50 in series [1] is 5 nM. Further, the CC50 at 5 days in series [2] was above 50000 nM.
The like results for `CCOC(=O)C1=C(CN2CCN3C(=O)N(C45CC(CF)(C4)C5)C[C@@H]3C2)NC(c2nccs2)=N[C@H]1c1cccc(F)c1C` [Compound 18, Ethyl (S)-4-(3-Fluoro-2-Methylphenyl)-6-(((S)-2-(3-(Fluoromethyl)Bicyclo[1.1.1]Pentan-1-Yl)-3-Oxohexahydroimidazo[1,5-a]Pyrazin-7(1H)-Yl)Methyl)-2-(Thiazol-2-Yl)-1,4-Dihydropyrimidine-5-Carboxylate] were, in that order, 3 nM and above 50000 nM.
For `CCOC(=O)C1=C(CN2CCN3C(=O)N(C45CC(C(=O)NS(C)(=O)=O)(C4)C5)C[C@@H]3C2)NC(c2nccs2)=N[C@H]1c1cccc(F)c1C` [Compound 28, Ethyl (S)-4-(3-Fluoro-2-Methylphenyl)-6-(((S)-2-(3-((Methylsulfonyl)Carbamoyl)Bicyclo[1.1.1]Pentan-1-Yl)-3-Oxohexahydroimidazo[1,5-a]Pyrazin-7(1H)-Yl)Methyl)-2-(Thiazol-2-Yl)-1,4-Dihydropyrimidine-5-Carboxylate] the same measures were 21 nM and above 50000 nM.
For `CCOC(=O)C1=C(CN2CCN3C(=O)N(C45CC(NS(=O)(=O)C6CC6)(C4)C5)C[C@@H]3C2)NC(c2nccs2)=N[C@H]1c1cccc(F)c1C` [Compound 29, Ethyl (S)-6-(((S)-2-(3-(Cyclopropanesulfonamido)Bicyclo[1.1.1]Pentan-1-Yl)-3-Oxohexahydroimidazo[1,5-a]Pyrazin-7(1H)-Yl)Methyl)-4-(3-Fluoro-2-Methylphenyl)-2-(Thiazol-2-Yl)-1,4-Dihydropyrimidine-5-Carboxylate] the same measures were 6 nM and above 50000 nM.
Consider `CCOC(=O)C1=C(CN2CCN3C(=O)N(C45CC(CO)(C4)C5)C[C@@H]3[C@H]2C(=O)O)NC(c2nccs2)=N[C@H]1c1cccc(F)c1C` [Compound 33, (8S,8aR)-7-(((S)-5-(Ethoxycarbonyl)-6-(3-Fluoro-2-Methylphenyl)-2-(Thiazol-2-Yl)-3,6-Dihydropyrimidin-4-Yl)Methyl)-2-(3-(Hydroxymethyl)Bicyclo[1.1.1]Pentan-1-Yl)-3-Oxooctahydroimidazo[1,5-a]Pyrazine-8-Carboxylic Acid], for which the EC50 in series [1] was determined as 202 nM. For the same molecule, the CC50 at 5 days in series [2] was above 50000 nM.
For `CCOC(=O)C1=C(CN2CCN3C(=O)N(C45CC(CC(=O)O)(C4)C5)C[C@@H]3C2)NC(c2nccs2)=N[C@H]1c1ccc(F)cc1Cl` [Compound 35], the EC50 in series [1] was 28 nM. For the same molecule, the CC50 at 5 days in series [2] was above 50000 nM.
For the molecule `CCOC(=O)C1=C(CN2CCN3C(=O)N(C45CC(CC(=O)O)(C4)C5)C[C@@H]3C2)NC(c2nccs2)=N[C@H]1c1ccc(F)cc1C` [Compound 37], in series [1], the EC50 came out at 18 nM. In series [2], the CC50 at 5 days was above 50000 nM.
For `COC(=O)C1=C(CN2CCN3C(=O)N(C45CC(CC(=O)O)(C4)C5)C[C@@H]3C2)NC(c2nccs2)=N[C@H]1c1ccc(F)cc1Cl` [Compound 38, 2-(3-((S)-7-(((R)-6-(2-Chloro-4-Fluorophenyl)-5-(Methoxycarbonyl)-2-(Thiazol-2-Yl)-3,6-Dihydropyrimidin-4-Yl)Methyl)-3-Oxohexahydroimidazo[1,5-a]Pyrazin-2 (3H)-Yl)Bicyclo[1.1.1]Pentane-1-Yl)Acetic Acid] the same measures were 43 nM and above 50000 nM.
The like results for `CCOC(=O)CC12CC(N3C[C@@H]4[C@@H](COC)N(CC5=C(C(=O)OCC)[C@H](c6cccc(F)c6C)N=C(c6nccs6)N5)CCN4C3=O)(C1)C2` [Compound 44, Ethyl (S)-6-(((8S,8aR)-2-(3-(2-Ethoxy-2-Oxoethyl)Bicyclo[1.1.1]Pentan-1-Yl)-8-(Methoxymethyl)-3-Oxohexahydroimidazo[1,5-a]Pyrazin-7(1H)-Yl)Methyl)-4-(3-Fluoro-2-Methylphenyl)-2-(Thiazol-2-Yl)-1,4-Dihydropyrimidine-5-Carboxylate] were, in that order, 183 nM and above 50000 nM.
For `CCOC(=O)C1=C(CN2CCN3C(=O)N(C45CC(NS(C)(=O)=O)(C4)C5)C[C@@H]3[C@H]2C(=O)O)NC(c2nccs2)=N[C@H]1c1cccc(F)c1C` [Compound 46, (8S,8aR)-7-(((S)-5-(Ethoxycarbonyl)-6-(3-Fluoro-2-Methylphenyl)-2-(Thiazol-2-Yl)-3,6-Dihydropyrimidin-4-Yl)Methyl)-2-(3-(Methylsulfonamido)Bicyclo[1.1.1]Pentan-1-Yl)-3-Oxooctahydroimidazo [1,5-a]Pyrazine-8-Carboxylic Acid] the same measures were 61 nM and above 50000 nM.
For the molecule `CCOC(=O)C1=C(CN2CCN3C(=O)N(C45CCC(CC(=O)O)(CC4)C5)C[C@@H]3C2)NC(c2nccs2)=N[C@H]1c1cccc(F)c1C` [Compound 63, 2-(4-((S)-7-(((S)-5-(Ethoxycarbonyl)-6-(3-Fluoro-2-Methylphenyl)-2-(Thiazol-2-Yl)-3,6-Dihydropyrimidin-4-Yl)Methyl)-3-Oxohexahydroimidazo[1,5-a]Pyrazin-2(3H)-Yl)Bicyclo[2.2.1]Heptan-1-Yl)Acetic Acid], the EC50 in series [1] came out at 26 nM.
Turning to `CCOC(=O)C1=C(CN2CCN3C(=O)N(C45CCC(CC(=O)O)(CC4)C5)C[C@@H]3C2)NC(c2nccs2)=N[C@H]1c1ccc(F)cc1C` [Compound 64, 2-(4-((S)-7-(((S)-5-(Ethoxycarbonyl)-6-(4-Fluoro-2-Methylphenyl)-2-(Thiazol-2-Yl)-3,6-Dihydropyrimidin-4-Yl)Methyl)-3-Oxohexahydroimidazo[1,5-a]Pyrazin-2(3H)-Yl)Bicyclo[2.2.1]Heptan-1-Yl)Acetic Acid], in series [1], the EC50 turned out to be 57 nM.
Still for that read-out and setting: then `CCOC(=O)C1=C(CN2CCN3C(=O)N(C45CCC(CC(=O)O)(CC4)C5)C[C@@H]3C2)NC(c2nccs2)=N[C@H]1c1ccc(F)cc1Cl` [Compound 65, 2-(4-((S)-7-(((R)-6-(2-Chloro-4-Fluorophenyl)-5-(Ethoxycarbonyl)-2-(Thiazol-2-Yl)-3,6-Dihydropyrimidin-4-Yl)Methyl)-3-Oxohexahydroimidazo[1,5-a]Pyrazin-2(3H)-Yl)Bicyclo[2.2.1]Heptan-1-Yl)Acetic Acid], with 42 nM.

The record behind these values is patent publication US20240166649A1, “DIHYDROPYRIMIDINE COMPOUND, PREPARATION METHOD THEREFOR AND APPLICATION THEREOF” (Shanghai Visonpharma Co., Ltd., priority 2021, published 2024).
